The source made the active and inactive calls. The rule behind the calls is not given here.

This data set concerns CCRIS mutagenicity, Ames/micronucleus/aberration tests. The data set is described as follows: CCRIS mutagenicity studies.
Setting [1] is: Test System: AMES SALMONELLA TYPHIMURIUM, Strain/Indicator: TA98, Metabolic Activation: NONE, Method: STANDARD PLATE.
[2] abbreviates: Test System: AMES SALMONELLA TYPHIMURIUM, Strain/Indicator: TA98, Metabolic Activation: RAT, LIVER, S-9, AROCLOR 1254, Method: STANDARD PLATE.
Where [3] appears, read: Test System: AMES SALMONELLA TYPHIMURIUM, Strain/Indicator: TA100, Metabolic Activation: NONE, Method: STANDARD PLATE.
Setting [4] is: Test System: AMES SALMONELLA TYPHIMURIUM, Strain/Indicator: TA100, Metabolic Activation: RAT, LIVER, S-9, AROCLOR 1254, Method: STANDARD PLATE.

Regarding `CCSCCC(N)C(=O)O` (stereo not given), the mutagenic call is “inactive; negative” (Test System: AMES SALMONELLA TYPHIMURIUM, Strain/Indicator: TA97, Metabolic Activation: HAMSTER, LIVER, S-9, AROCLOR 1254 (10%), Method: PREINCUBATION); “inactive; negative” (Test System: AMES SALMONELLA TYPHIMURIUM, Strain/Indicator: TA97, Metabolic Activation: HAMSTER, LIVER, S-9, AROCLOR 1254 (30%), Method: PREINCUBATION); “inactive; negative” (Test System: AMES SALMONELLA TYPHIMURIUM, Strain/Indicator: TA97, Metabolic Activation: NONE, Method: PREINCUBATION); “inactive; negative” (Test System: AMES SALMONELLA TYPHIMURIUM, Strain/Indicator: TA97, Metabolic Activation: RAT, LIVER, S-9, AROCLOR 1254 (10%), Method: PREINCUBATION); “inactive; negative” (Test System: AMES SALMONELLA TYPHIMURIUM, Strain/Indicator: TA97, Metabolic Activation: RAT, LIVER, S-9, AROCLOR 1254 (30%), Method: PREINCUBATION); “inactive; negative” (Test System: AMES SALMONELLA TYPHIMURIUM, Strain/Indicator: TA98, Metabolic Activation: HAMSTER, LIVER, S-9, AROCLOR 1254 (10%), Method: PREINCUBATION). For the same compound, the mutagenic call is, setting by setting: (Test System: AMES SALMONELLA TYPHIMURIUM, Strain/Indicator: TA98, Metabolic Activation: HAMSTER, LIVER, S-9, AROCLOR 1254 (30%), Method: PREINCUBATION) “inactive; negative”; (Test System: AMES SALMONELLA TYPHIMURIUM, Strain/Indicator: TA98, Metabolic Activation: NONE, Method: PREINCUBATION) “inactive; negative”; (Test System: AMES SALMONELLA TYPHIMURIUM, Strain/Indicator: TA98, Metabolic Activation: RAT, LIVER, S-9, AROCLOR 1254 (10%), Method: PREINCUBATION) “inactive; negative”; (Test System: AMES SALMONELLA TYPHIMURIUM, Strain/Indicator: TA98, Metabolic Activation: RAT, LIVER, S-9, AROCLOR 1254 (30%), Method: PREINCUBATION) “inactive; negative”; (Test System: AMES SALMONELLA TYPHIMURIUM, Strain/Indicator: TA100, Metabolic Activation: HAMSTER, LIVER, S-9, AROCLOR 1254 (10%), Method: PREINCUBATION) “inactive; negative”; (Test System: AMES SALMONELLA TYPHIMURIUM, Strain/Indicator: TA100, Metabolic Activation: HAMSTER, LIVER, S-9, AROCLOR 1254 (30%), Method: PREINCUBATION) “inactive; negative”. The mutagenic call was “inactive; negative” (Test System: AMES SALMONELLA TYPHIMURIUM, Strain/Indicator: TA100, Metabolic Activation: NONE, Method: PREINCUBATION); “inactive; negative” (Test System: AMES SALMONELLA TYPHIMURIUM, Strain/Indicator: TA100, Metabolic Activation: RAT, LIVER, S-9, AROCLOR 1254 (10%), Method: PREINCUBATION); “inactive; negative” (Test System: AMES SALMONELLA TYPHIMURIUM, Strain/Indicator: TA100, Metabolic Activation: RAT, LIVER, S-9, AROCLOR 1254 (30%), Method: PREINCUBATION); “inactive; negative” (Test System: AMES SALMONELLA TYPHIMURIUM, Strain/Indicator: TA104, Metabolic Activation: HAMSTER, LIVER, S-9, AROCLOR 1254 (10%), Method: PREINCUBATION); “inactive; negative” (Test System: AMES SALMONELLA TYPHIMURIUM, Strain/Indicator: TA104, Metabolic Activation: HAMSTER, LIVER, S-9, AROCLOR 1254 (30%), Method: PREINCUBATION); “inactive; negative” (Test System: AMES SALMONELLA TYPHIMURIUM, Strain/Indicator: TA104, Metabolic Activation: NONE, Method: PREINCUBATION). The mutagenic call was “inactive; negative” (Test System: AMES SALMONELLA TYPHIMURIUM, Strain/Indicator: TA104, Metabolic Activation: RAT, LIVER, S-9, AROCLOR 1254 (10%), Method: PREINCUBATION); “inactive; negative” (Test System: AMES SALMONELLA TYPHIMURIUM, Strain/Indicator: TA104, Metabolic Activation: RAT, LIVER, S-9, AROCLOR 1254 (30%), Method: PREINCUBATION); “inactive; negative” (Test System: AMES SALMONELLA TYPHIMURIUM, Strain/Indicator: TA1535, Metabolic Activation: HAMSTER, LIVER, S-9, AROCLOR 1254 (10%), Method: PREINCUBATION); “inactive; negative” (Test System: AMES SALMONELLA TYPHIMURIUM, Strain/Indicator: TA1535, Metabolic Activation: HAMSTER, LIVER, S-9, AROCLOR 1254 (30%), Method: PREINCUBATION); “inactive; negative” (Test System: AMES SALMONELLA TYPHIMURIUM, Strain/Indicator: TA1535, Metabolic Activation: NONE, Method: PREINCUBATION); “inactive; negative” (Test System: AMES SALMONELLA TYPHIMURIUM, Strain/Indicator: TA1535, Metabolic Activation: RAT, LIVER, S-9, AROCLOR 1254 (10%), Method: PREINCUBATION). The mutagenic call (Test System: AMES SALMONELLA TYPHIMURIUM, Strain/Indicator: TA1535, Metabolic Activation: RAT, LIVER, S-9, AROCLOR 1254 (30%), Method: PREINCUBATION) is “inactive; negative”.
For `O=c1[nH]cnc2[nH]ncc12`, the mutagenic call by setting is: (Test System: AMES SALMONELLA TYPHIMURIUM, Strain/Indicator: TA98, Metabolic Activation: HAMSTER, LIVER, S-9, AROCLOR 1254, Method: STANDARD PLATE) “inactive; negative”; under setting [1], “inactive; negative”; under setting [2], “inactive; negative”; (Test System: AMES SALMONELLA TYPHIMURIUM, Strain/Indicator: TA100, Metabolic Activation: HAMSTER, LIVER, S-9, AROCLOR 1254, Method: STANDARD PLATE) “inactive; negative”; under setting [3], “inactive; negative”; under setting [4], “inactive; negative”. The mutagenic call (Test System: AMES SALMONELLA TYPHIMURIUM, Strain/Indicator: TA1535, Metabolic Activation: HAMSTER, LIVER, S-9, AROCLOR 1254, Method: STANDARD PLATE) is “inactive; negative”; the mutagenic call (Test System: AMES SALMONELLA TYPHIMURIUM, Strain/Indicator: TA1535, Metabolic Activation: NONE, Method: STANDARD PLATE) is “inactive; negative”; the mutagenic call (Test System: AMES SALMONELLA TYPHIMURIUM, Strain/Indicator: TA1535, Metabolic Activation: RAT, LIVER, S-9, AROCLOR 1254, Method: STANDARD PLATE) is “inactive; negative”; the mutagenic call (Test System: AMES SALMONELLA TYPHIMURIUM, Strain/Indicator: TA1537, Metabolic Activation: HAMSTER, LIVER, S-9, AROCLOR 1254, Method: STANDARD PLATE) is “inactive; negative”; the mutagenic call (Test System: AMES SALMONELLA TYPHIMURIUM, Strain/Indicator: TA1537, Metabolic Activation: NONE, Method: STANDARD PLATE) was “inactive; negative”; the mutagenic call (Test System: AMES SALMONELLA TYPHIMURIUM, Strain/Indicator: TA1537, Metabolic Activation: RAT, LIVER, S-9, AROCLOR 1254, Method: STANDARD PLATE) is “inactive; negative”. Further, the mutagenic call by setting is: (Test System: AMES SALMONELLA TYPHIMURIUM, Strain/Indicator: TA1538, Metabolic Activation: HAMSTER, LIVER, S-9, AROCLOR 1254, Method: STANDARD PLATE) “inactive; negative”; (Test System: AMES SALMONELLA TYPHIMURIUM, Strain/Indicator: TA1538, Metabolic Activation: NONE, Method: STANDARD PLATE) “inactive; negative”; (Test System: AMES SALMONELLA TYPHIMURIUM, Strain/Indicator: TA1538, Metabolic Activation: RAT, LIVER, S-9, AROCLOR 1254, Method: STANDARD PLATE) “inactive; negative”; (Test System: MOUSE LYMPHOMA, Strain/Indicator: L5178Y (TK+/TK-), Metabolic Activation: NONE, Method: SUSPENSION/PLATE) “inactive; negative. reevaluation of results: negative”; (Test System: MOUSE LYMPHOMA, Strain/Indicator: L5178Y (TK+/TK-), Metabolic Activation: RAT, LIVER, S-9, AROCLOR 1254, Method: SUSPENSION/PLATE) “inactive; negative. reevaluation of results: negative”.
With `Oc1cccc(Cl)c1`, the mutagenic call is “active; positive” (Test System: AMES SALMONELLA TYPHIMURIUM, Strain/Indicator: TA97, Metabolic Activation: NONE, Method: STANDARD PLATE); “active; positive” (Test System: AMES SALMONELLA TYPHIMURIUM, Strain/Indicator: TA97, Metabolic Activation: RAT, LIVER, S-9, AROCLOR 1254, Method: STANDARD PLATE); “active; positive” under setting [1]; “active; positive” under setting [2]; “active; positive” under setting [3]; “inactive; negative” under setting [4]. Besides, the mutagenic call is “inactive; negative” (Test System: AMES SALMONELLA TYPHIMURIUM, Strain/Indicator: TA104, Metabolic Activation: NONE, Method: STANDARD PLATE) and “inactive; negative” (Test System: AMES SALMONELLA TYPHIMURIUM, Strain/Indicator: TA104, Metabolic Activation: RAT, LIVER, S-9, AROCLOR 1254, Method: STANDARD PLATE).

(Values after PubChem BioAssay AID1259407 (Chemical Carcinogenesis Research Information System (CCRIS), 2018).)
